Laboratory results published in patent US8663669B2, “Pesticide treatment of soils or substrates with sulphur compounds” (Arkema France, priority 2002, dated 2014).

Legend:
[1] = test system: termite (Reticulitermes santonensis); experiment: Insecticidal in vitro fumigation test on termites; assay type: in vivo; details: 24 hours of fumigation, mortality counted at the end of 48 hours; 25° C.
Protocol: Dead wood infested with termites was collected from the soil on ground occupied by a colony. This dead wood serves as breeding medium. The breeding is maintained at a constant 25° C. and a day/night 12:12 alternation.
The insects are removed in an amount of 2 soldiers per 28 workers.
The tests are carried out in hermetically closed glass jars having a volume of 3 L and containing the insects.
The product to be tested is introduced through a hole 2 mm in diameter with the aid of a micropipette and deposited on a filter paper (2×5 cm: Whatman No. 1) suspended at the centre of the jar where it migrates by capillarity and vaporizes rapidly. The hole is hermetically closed again as quickly as possible.
The jars are placed for 24 hours in an incubator under the same breeding conditions.
At the end of 24 hours, after a few instants of aeration, a first count is made and then the insects are placed again under breeding conditions for another 24 hours. The counting of the mortality is therefore carried out at the end of 48 hours. […] Each test is carried out on a population of 30 to 50 insects and is accompanied by a control without treatment. Several repeats are carried out with doses close to the LC50.

[2] = test system: eggs of nematodes (Meloidogyne arenaria); experiment: Ovicidal activity on the eggs of nematodes (number of hatchings); assay type: in vivo
Protocol: (§1) The breeding of the nematodes was carried out on tomato plants. The tests were carried out with, aqueous solutions of DMDS at 0.0001%, 0.1%, 1% and 5% by mass, of DPDS at 1%, 5% and 10% by mass, and of allicin at 0.0003%, 0.0015% and 0.003% by mass, compared with a control consisting of pure water, and repeated five times. The ovicidal activity was also evaluated according to the same modalities, by counting the number of hatchings after 5 to 20 days following exposure to the products.

[3] = test system: larvae of Meloidogyne arenaria; experiment: Nematicidal in vitro test on second-stage juvenile larvae; assay type: in vivo; details: for Immobility rate after 48 h: 24 h in solution then 24 h in pure water
Protocol: The second-stage juvenile larvae (the free and infesting stage) are immersed for 24 hours in the test solution and then the number of larvae paralysed are counted before transferring them into pure water for another 24 hours. At the end of the 48 hours which have thus elapsed, the larvae paralysed are again counted and the larvae truly dead are counted the next day.
as §1

[4] = test system: termite (Reticulitermes santonensis); details: value given for comparison, not among the 3 products tested; cited from earlier work

For `C=CCSSCC=C` [DADS, diallyldisulphide], the “LC50 (Probits method)” value [1] was 0.011 g × 24 h/m^3.
In the case of `CCCSSCCC` [DPDS, dipropyl disulphide], the Ovicidal activity ([2]; 1-10 % by mass) is reported as “very high ovicidal activity”, the “Number of hatchings (cumulative)” value ([2]; concentration by mass 1 %, D5, control 550) is reported as 117 and the “Number of hatchings (cumulative)” value ([2]; concentration by mass 1 %, D8, control 810) is reported as 183. The “Number of hatchings (cumulative)” value ([2]; concentration by mass 1 %, D12, control 990) was 200, the “Number of hatchings (cumulative)” value ([2]; concentration by mass 1 %, D15, control 1 030) was 200 and the “Number of hatchings (cumulative)” value ([2]; concentration by mass 1 %, D19, control 1 030) was 200. The “Number of hatchings (cumulative)” value ([2]; concentration by mass 5 %, D5, control 550) was 67, the “Number of hatchings (cumulative)” value ([2]; concentration by mass 5 %, D8, control 810) was 67 and the “Number of hatchings (cumulative)” value ([2]; concentration by mass 5 %, D12, control 990) was 67. The “Number of hatchings (cumulative)” value ([2]; concentration by mass 5 %, D15, control 1 030) was 67, the “Number of hatchings (cumulative)” value ([2]; concentration by mass 5 %, D19, control 1 030) was 67 and the “Number of hatchings (cumulative)” value ([2]; concentration by mass 10 %, D5, control 550) was 33. For the same compound, the “Number of hatchings (cumulative)” value ([2]; concentration by mass 10 %, D8, control 810) was 33, the “Number of hatchings (cumulative)” value ([2]; concentration by mass 10 %, D12, control 990) was 33 and the “Number of hatchings (cumulative)” value ([2]; concentration by mass 10 %, D15, control 1 030) was 33. The “Number of hatchings (cumulative)” value ([2]; concentration by mass 10 %, D19, control 1 030) was 33, the “Reduction in the number of hatchings” value ([2]; on the last day of observation) was “approximately 97%” and the “Concentration for total efficacy (100% mortality)” value ([3]; by mass, aqueous solution) was “greater than or equal to 1%”. The “Mortality rate after 72 h” value ([3]; concentration by mass 1 %) was 100%, the “Immobility rate after 48 h” value ([3]; concentration by mass 1 %) was 100% and the “Immobility rate after 24 h” value ([3]; concentration by mass 1 %, aqueous solution) was 89%. The “Mortality rate after 72 h” value ([3]; concentration by mass 5 %) was 100%, the “Immobility rate after 48 h” value ([3]; concentration by mass 5 %) was 100% and the “Immobility rate after 24 h” value ([3]; concentration by mass 5 %, aqueous solution) was 93%. For the same compound, the “Mortality rate after 72 h” value ([3]; concentration by mass 10 %) was 100%, the “Immobility rate after 48 h” value ([3]; concentration by mass 10 %) was 100% and the “Immobility rate after 24 h” value ([3]; concentration by mass 10 %, aqueous solution) was 95%. For the same compound, the “Nematostatic and nematicidal activity” value ([3]; concentration of greater than or equal to 1%) was “high nematostatic and nematicidal activity”.
In the case of `C=CCS[S+]([O-])CC=C` (centres unmarked) [allicin, diallyl thiosulphinate], the “Nematostatic and nematicidal activity” value ([3]; at much lower concentrations (0.0003-0.003% by mass)) is reported as “high nematostatic and nematicidal activity”, the “Mortality rate after 72 h” value ([3]; concentration by mass 0.0003 %) is reported as 12% and the “Immobility rate after 48 h” value ([3]; concentration by mass 0.0003 %) is reported as 49%. For the same compound, the “Immobility rate after 24 h” value ([3]; concentration by mass 0.0003 %, aqueous solution) was 7%, the “Mortality rate after 72 h” value ([3]; concentration by mass 0.0015 %) was 45% and the “Immobility rate after 48 h” value ([3]; concentration by mass 0.0015 %) was 85%. The “Immobility rate after 24 h” value ([3]; concentration by mass 0.0015 %, aqueous solution) was 19%, the “Mortality rate after 72 h” value ([3]; concentration by mass 0.003 %) was 63% and the “Immobility rate after 48 h” value ([3]; concentration by mass 0.003 %) was 65%. For the same compound, the “Immobility rate after 24 h” value ([3]; concentration by mass 0.003 %, aqueous solution) was 49% and the “LC50 (Probits method)” value [1] was 0.010 g × 24 h/m^3.
For `CBr` [methyl bromide], the “LC50 of the comparison fumigant” value [4] is given as 0.1 g×24 h/m^3.
